Columns and labels:
[1] = human, in vivo
Excerpt: In a drug-drug interaction clinical pharmacology study the effects of the GLP-1 receptor agonist exenatide on the pharmacokinetics of bexagliflozin were studied in a randomized crossover study. It is known that GLP-1 receptor agonists retard gastric emptying and because the bexagliflozin dosage form has a gastroretentive mechanism, the possibility that the retardation would adversely affect bexagliflozin delivery was considered important to address (see e.g., Guideline on the pharmacokinetic and clinical evaluation of modified release dosage forms (EMA/CPMP/EWP/280/96 Corr1) section 5.1.4.2.). In the study, participants were assigned to either receive bexagliflozin alone first, or combined treatment with bexagliflozin and exenatide first. Each group received both treatments alternately, in a crossover fashion (two-period, two-treatment crossover design), with the two treatment periods separated by a 7-day washout period. […] Although the endpoints of the confidence intervals fell outside of the range 80-125%, indicating an interaction leading to a change in exposure when bexagliflozin was administered following exenatide, the effect of exenatide on bexagliflozin pharmacokinetics was not so large as to jeopardize patient safety or to provoke a recommendation for a change in prescribing pattern. […] Absorption was delayed when bexagliflozin was administered 30 minutes after exenatide injection, with a median Tmax of 5.00 hours post-dose compared to 2.00 hours post-dose following administration of bexagliflozin alone.

P-gp = P-gp (Homo sapiens, UniProt P08183); test: P-gp substrate observation; format: in vitro ADME
Excerpt: Because P-gp expression increases with distance along the small intestine, absorption is likely greater in the duodenum than the ileum, and quantitative mass balance studies using [^14C]-bexagliflozin have shown that colonic absorption is minimal (Zhang et al. Xenobiotica. 2019 Aug. 27:1-11. doi: 10.1080/00498254.2019.1654634). Because of the potential practical incompatibility of using an extended release tablet while aiming for most drug release to occur high in the small intestine, tablets of the invention advantageously include an adaptation that can help to retain them in the stomach. A large part of the extended release of bexagliflozin can thus occur in the stomach, permitting absorption of the drug to occur at the desired location in the small intestine, thereby providing an advantageous pharmacokinetic profile.

[2] = quantitative mass balance studies using [^14C]-bexagliflozin; cited from earlier work

Chain of P-gp (P08183 whole entry): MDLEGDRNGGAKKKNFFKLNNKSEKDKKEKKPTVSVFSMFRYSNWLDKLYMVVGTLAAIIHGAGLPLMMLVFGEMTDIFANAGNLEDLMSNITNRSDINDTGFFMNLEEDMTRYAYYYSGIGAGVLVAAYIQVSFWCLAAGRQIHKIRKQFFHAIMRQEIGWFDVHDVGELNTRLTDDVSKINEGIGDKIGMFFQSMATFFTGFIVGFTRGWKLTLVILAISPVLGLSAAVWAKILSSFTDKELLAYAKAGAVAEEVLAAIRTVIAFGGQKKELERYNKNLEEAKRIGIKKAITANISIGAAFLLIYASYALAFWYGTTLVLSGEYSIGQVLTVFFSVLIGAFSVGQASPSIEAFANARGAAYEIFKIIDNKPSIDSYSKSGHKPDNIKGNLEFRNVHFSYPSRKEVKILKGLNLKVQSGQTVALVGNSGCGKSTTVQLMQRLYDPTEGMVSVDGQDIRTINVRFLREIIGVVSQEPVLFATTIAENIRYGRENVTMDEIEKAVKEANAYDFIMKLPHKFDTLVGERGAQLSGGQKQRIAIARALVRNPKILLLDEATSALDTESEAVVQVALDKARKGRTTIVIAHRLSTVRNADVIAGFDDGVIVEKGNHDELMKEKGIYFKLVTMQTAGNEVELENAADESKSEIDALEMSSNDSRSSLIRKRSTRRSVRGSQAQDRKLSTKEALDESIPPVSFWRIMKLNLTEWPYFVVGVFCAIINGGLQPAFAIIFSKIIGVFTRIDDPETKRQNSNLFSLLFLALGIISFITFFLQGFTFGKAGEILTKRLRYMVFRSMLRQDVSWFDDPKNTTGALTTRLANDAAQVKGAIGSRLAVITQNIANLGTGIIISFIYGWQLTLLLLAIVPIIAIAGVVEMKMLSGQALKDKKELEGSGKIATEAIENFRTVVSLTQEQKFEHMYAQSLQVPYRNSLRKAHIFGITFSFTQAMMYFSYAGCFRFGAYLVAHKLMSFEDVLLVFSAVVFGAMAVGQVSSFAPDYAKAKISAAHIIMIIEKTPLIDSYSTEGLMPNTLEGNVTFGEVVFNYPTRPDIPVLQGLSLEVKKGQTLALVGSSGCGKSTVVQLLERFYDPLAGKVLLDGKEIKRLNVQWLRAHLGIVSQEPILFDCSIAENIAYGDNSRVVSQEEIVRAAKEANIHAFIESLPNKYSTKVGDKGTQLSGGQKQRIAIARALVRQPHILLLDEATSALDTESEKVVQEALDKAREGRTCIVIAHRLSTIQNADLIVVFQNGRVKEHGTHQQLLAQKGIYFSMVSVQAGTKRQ

intra-subject variability for AUC0-t and AUC0-∞ [1]: < 22%
intra-subject variability for Cmax [1]: approximately 32%
ratio of geometric least square means for AUC0-t, with exenatide to alone [1]: 147.50%
ratio of geometric least square means for AUC0-∞, with exenatide to alone [1]: 137.56%
ratio of geometric least square means for Cmax, with exenatide to alone [1]: 125.27%
increase of AUC0-t compared to bexagliflozin alone ([1]; sc): approximately 48%
increase of AUC0-∞ compared to bexagliflozin alone ([1]; sc): ~38%
increase of Cmax compared to bexagliflozin alone ([1]; sc): ~25%
P-gp substrate status (P-gp): P-gp substrate
SMILES: OC[C@H]1O[C@@H](c2ccc(Cl)c(Cc3ccc(OCCOC4CC4)cc3)c2)[C@H](O)[C@@H](O)[C@@H]1O [bexagliflozin, (2S,3R,4R,5S,6R)-2-(4-chloro-3-(4-(2-cyclopropoxyethoxy)benzyl)phenyl)-6-(hydroxymethyl)tetrahydro-2H-pyran-3,4,5-triol]
colonic absorption [2]: minimal

From patent US12594243B2, “Pharmaceutical formulations” (THERACOSBIO, LLC, priority 2020, dated 2026)
